Tested on: hangover symptoms
Test: Testing of composition components on alcohol-induced (hangover) symptoms
Assay type: in vivo, human
Procedure: To test, various components of the compositions disclosed herein, individuals were selected to test the efficacy of various formulations. The scale employed during the testing of alcohol-induced symptoms was as follows: (a) no symptoms; (b) very mild symptoms; (c) mild symptoms; (d) moderate symptoms; (e) severe symptoms; and/or (f) very severe symptoms. […] The testing was carried out by a person of average size and build consuming standard alcoholic drinks (e.g., a beer) and the components below were consumed generally prior to consumption of alcohol. […]

[1] = man of average size, standard alcoholic drinks, taken prior to alcohol

In the case of `O=C1c2c(O)cc(O)cc2O[C@H](c2cc(O)c(O)c(O)c2)[C@H]1O` [DHM, dihydromyricetin], the alcohol-induced symptoms (3 drinks, 300 mg DHM (without DHM: very mild symptoms)) is reported as “elimination of all symptoms”, the alcohol-induced symptoms (3 drinks, less than 300 mg DHM (without DHM: very mild symptoms)) is reported as “no reduction of symptoms” and the alcohol-induced symptoms (6 drinks, 300 mg DHM (without DHM: moderate symptoms)) is reported as “reduction to mild symptoms”. The alcohol-induced symptoms (6 drinks, 750 mg DHM (without DHM: moderate symptoms)) was “reduction to very mild symptoms”, the alcohol-induced symptoms (6 drinks, 1200 mg DHM (without DHM: moderate symptoms)) was “elimination of all symptoms” and the alcohol-induced symptoms (9 drinks, 300 mg DHM (without DHM: severe symptoms)) was “no reduction of symptoms”. For the same compound, the alcohol-induced symptoms (9 drinks, 750 mg DHM (without DHM: severe symptoms)) was “reduction to moderate symptoms”, the alcohol-induced symptoms (9 drinks, 1200 mg DHM (without DHM: severe symptoms)) was “reduction to mild symptoms” and the alcohol-induced symptoms (9 drinks, 1500 mg DHM (without DHM: severe symptoms)) was “reduction to very mild symptoms”. For the same compound, the alcohol-induced symptoms (9 drinks, 1850 mg DHM (without DHM: severe symptoms)) was “reduction of all symptoms with the sole exception of fatigue”, the “elimination of all symptoms” value (12 and 15 drinks, all DHM doses tested) was “no dose of DHM, as tested, eliminated all symptoms” and the alcohol-induced symptoms (12 drinks, 750 mg DHM (without DHM: severe symptoms)) was “no reduction of symptoms”. The alcohol-induced symptoms (12 drinks, 1200 mg DHM (without DHM: severe symptoms)) was “no reduction of symptoms”, the alcohol-induced symptoms (12 drinks, 1500 mg DHM (without DHM: severe symptoms)) was “reduction to moderate symptoms” and the alcohol-induced symptoms (12 drinks, 1850 mg DHM (1500 mg gave moderate symptoms)) was “no further reduction in symptoms”. For the same compound, the alcohol-induced symptoms (12 drinks, 2400 mg DHM (1500 mg gave moderate symptoms)) was “no further reduction in symptoms”, the alcohol-induced symptoms (15 drinks, 1500 mg DHM (without DHM: very severe symptoms)) was “no reduction of symptoms” and the alcohol-induced symptoms (15 drinks, 1850 mg DHM (without DHM: very severe symptoms)) was “reduction to severe symptoms”. For the same compound, the alcohol-induced symptoms (15 drinks, 2400 mg DHM (1850 mg gave severe symptoms)) was “no further reduction of symptoms”, the alcohol-induced symptoms (15 drinks, 3600 mg DHM (1850 mg gave severe symptoms)) was “no further reduction of symptoms” and the alcohol-induced symptoms (18 drinks, 1850 mg DHM (without DHM: very severe symptoms)) was “no reduction of symptoms”. For the same compound, the alcohol-induced symptoms (18 drinks, 2400 mg DHM (without DHM: very severe symptoms)) was “no reduction of symptoms”, the alcohol-induced symptoms (18 drinks, 3600 mg DHM (without DHM: very severe symptoms)) was “no reduction of symptoms” and the alcohol-induced symptoms (18 drinks, 5000 mg DHM (without DHM: very severe symptoms)) was “no reduction of symptoms”. The “dosage above which no additional benefits were seen” value [1] was “about 1850 mg” and the “dosage at which benefits on hangover symptoms begin” value [1] was “about 300 mg”.
